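Where inhibition never reached the appropriate level, the endpoint shown equals the highest concentration tested. Otherwise, values were interpolated linearly from a five-concentration, 48-hour dose response in 96-well plates. Abbreviation: GI50, concentration required for 50% inhibition of growth.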 Activity calls are given as the source filed them. Cut-off read from the data, not from the text of the source: active = GI50 up to about 1.1 µM and inactive = higher.
How the values were obtained:
Test in all cases: NCI anticancer screen, dose series, 48 h
HOP-62 = test system: HOP-62
UACC-257 = test system: UACC-257
Malme-3M = test system: Malme-3M
SF-539 = test system: SF-539
COLO 205 = test system: COLO 205
KM12 = test system: KM12
MDA-MB-435 = test system: MDA-MB-435
SK-OV-3 = test system: SK-OV-3
SK-MEL-2 = test system: SK-MEL-2
UO-31 = test system: UO-31
U-251 = test system: U-251
NCI/ADR-RES = test system: NCI/ADR-RES
NCI-H23 = test system: NCI-H23
NCI-H522 = test system: NCI-H522
A498 = test system: A498
SW-620 = test system: SW-620
T47D = test system: T47D
RPMI-8226 = test system: RPMI-8226

Compound | GI50 (HOP-62) | GI50 (UACC-257) | GI50 (Malme-3M) | GI50 (SF-539) | GI50 (COLO 205) | GI50 (KM12) | GI50 (MDA-MB-435) | GI50 (SK-OV-3) | GI50 (SK-MEL-2) | GI50 (UO-31) | GI50 (U-251) | GI50 (NCI/ADR-RES) | GI50 (NCI-H23) | GI50 (NCI-H522) | GI50 (A498) | GI50 (SW-620) | GI50 (T47D) | GI50 (RPMI-8226)
Cc1n(Cc2ccccc2)c2c([n+]1C)C(=O)c1ccccc1C2=O | 0.0407 µM (active) | 0.034 µM (active) | 0.0171 µM (active) | 0.026 µM (active) | < 0.01 µM (active) | 0.0605 µM (active) | 0.183 µM (active) | 0.389 µM (active) | 0.132 µM (active) | 4.57 µM (inactive) | 0.0324 µM (active) | 21.1 µM (inactive) | 0.0434 µM (active) | 0.027 µM (active) | 0.129 µM (active) | 0.0455 µM (active) | 0.215 µM (active) | 0.0296 µM (active)
COc1ccc(C2=NNC(=O)c3ccccc3N2c2nc(-c3cccs3)nc3ccc(Br)cc23)cc1 | 17.6 µM (inactive) | 51.9 µM (inactive) | 25.2 µM (inactive) | 16.7 µM (inactive) | 73.8 µM (inactive) | 61.5 µM (inactive) | > 100 µM (inactive) | 53.7 µM (inactive) | 78.9 µM (inactive) | > 100 µM (inactive) | 28.8 µM (inactive) | 19.1 µM (inactive) | 31 µM (inactive) | 64.9 µM (inactive) | > 100 µM (inactive) | 91.4 µM (inactive) | 23.7 µM (inactive) | 52.2 µM (inactive)
COc1ccc(/C=C(/C#N)C(N)=O)cc1OC | > 100 µM (inactive) | > 100 µM (inactive) | > 100 µM (inactive) | > 100 µM (inactive) | > 100 µM (inactive) | > 100 µM (inactive) | > 100 µM (inactive) | > 100 µM (inactive) | > 100 µM (inactive) | – | > 100 µM (inactive) | > 100 µM (inactive) | > 100 µM (inactive) | > 100 µM (inactive) | 72.6 µM (inactive) | > 100 µM (inactive) | > 100 µM (inactive) | > 100 µM (inactive)
Oc1ccc2c3c1OC1c4[nH]c5c(c4CC4(O)C(C2)N(CC2CC2)CC[C@]314)CC1(O)C2Cc3ccc(O)c4c3[C@@]1(CCN2CC1CC1)C5O4 (stereo partly drawn) | 77.3 µM (inactive) | 20.3 µM (inactive) | 17 µM (inactive) | – | 18.1 µM (inactive) | 17.5 µM (inactive) | 19.9 µM (inactive) | 43 µM (inactive) | 24.2 µM (inactive) | > 100 µM (inactive) | 19.9 µM (inactive) | > 100 µM (inactive) | > 100 µM (inactive) | 19.3 µM (inactive) | 17.5 µM (inactive) | 21.9 µM (inactive) | 18.6 µM (inactive) | 25.2 µM (inactive)
CC(C)C1OC(/C=C/c2ccccc2)OCC1(C)C (stereo not drawn) | 32.1 µM (inactive) | 24.8 µM (inactive) | 0.91 µM (active) | – | 16.6 µM (inactive) | 31 µM (inactive) | 33.7 µM (inactive) | 48.3 µM (inactive) | 18.2 µM (inactive) | 34.8 µM (inactive) | 24.9 µM (inactive) | 41.6 µM (inactive) | 27.7 µM (inactive) | 13.8 µM (inactive) | 24 µM (inactive) | 30.7 µM (inactive) | 31.4 µM (inactive) | 17.8 µM (inactive)
c1ccc(C(CCN2CCCC2)c2ccccn2)cc1 (stereo not drawn) | > 100 µM (inactive) | > 100 µM (inactive) | > 100 µM (inactive) | – | > 100 µM (inactive) | > 100 µM (inactive) | > 100 µM (inactive) | > 100 µM (inactive) | > 100 µM (inactive) | > 100 µM (inactive) | > 100 µM (inactive) | > 100 µM (inactive) | > 100 µM (inactive) | > 100 µM (inactive) | > 100 µM (inactive) | > 100 µM (inactive) | > 100 µM (inactive) | > 100 µM (inactive)
COC(=O)c1ccccc1C1CN=NC12Cc1c(C)ccc(C)c1C2=O (stereo not drawn) | > 100 µM (inactive) | > 100 µM (inactive) | 36.6 µM (inactive) | > 100 µM (inactive) | > 100 µM (inactive) | > 100 µM (inactive) | > 100 µM (inactive) | > 100 µM (inactive) | > 100 µM (inactive) | > 100 µM (inactive) | > 100 µM (inactive) | > 100 µM (inactive) | > 100 µM (inactive) | > 100 µM (inactive) | > 100 µM (inactive) | > 100 µM (inactive) | > 100 µM (inactive) | –
N#Cc1ccc(Oc2nc3ccccc3nc2C(=O)O)cc1 | > 100 µM (inactive) | > 100 µM (inactive) | > 100 µM (inactive) | – | > 100 µM (inactive) | > 100 µM (inactive) | > 100 µM (inactive) | > 100 µM (inactive) | > 100 µM (inactive) | > 100 µM (inactive) | > 100 µM (inactive) | > 100 µM (inactive) | > 100 µM (inactive) | > 100 µM (inactive) | > 100 µM (inactive) | > 100 µM (inactive) | > 100 µM (inactive) | > 100 µM (inactive)

— ChEMBL document CHEMBL1201862, “PubChem BioAssay data set” (2004)
